Molecular target: arrestin2
Assay: Cou-facilitated FRET assay for dissociation constant determination
Type: binding, bovine
Conditions: for Kd: 1 μM arrestin2 L293Cou with 1 μM Fab30, rising phosphopeptide concentrations, 25 °C, excitation 280 nm, ratio F450/F330; for reduction of affinity for arrestin2 compared with V2Rpp-FP: from FRET Kd values
Description: Steady state fluorescence was measured by a Varioskan flash (Thermo Scientific) instrument at 25 °C. […] Fluorescence intensity analysis of normalized ratio F450/F330 was calculated from relative fluorescence intensity at 450 and 330 nm. The dissociation constant was determined by fitting to the nonlinear regression equation y = Bmax [X] / (Kd + [X]) + NS[X] + Background as ours previously reported. […]
different phospho-peptide binding. a). Schematic flowchart of FRET assay for dissociation constant determination of arrestin-phospho-peptide interaction.
The synthetic fluorescent amino acid L-(7-hydroxycoumarin-4-yl) ethylglycine (Cou) was genetically incorporated into arrestin2 and served as a fluorescent acceptor for the emission light at 330 nm, and tryptophan served as the donor, which was excited at 280 nm. Cou produced its characteristic emission light at 450 nm. b). Analysis of the titration experiments monitored by FRET assay. The dissociation constant was determined by fitting to the nonlinear regression equation y = Bmax[X]/(Kd + [X]) + NS[X]+Background as previously described4. […]

Row | SMILES | Kd | reduction of affinity for arrestin2 compared with V2Rpp-FP
1 | CC(C)C[C@H](NC(=O)[C@H](COP(=O)(O)O)NC(=O)[C@@H]1CCCN1C(=O)[C@@H]1CCCN1C(=O)[C@@H](NC(=O)[C@H](CCCNC(=N)N)NC(=O)CNC(=O)[C@H](CCCNC(=N)N)NC(=O)[C@H](C)N)[C@@H](C)O)C(=O)NCC(=O)N1CCC[C@H]1C(=O)N[C@@H](CCC(N)=O)C(=O)N[C@@H](CC(=O)O)C(=O)N[C@@H](CCC(=O)O)C(=O)N[C@@H](COP(=O)(O)O)C(=O)N[C@@H](CS)C(=O)N[C@H](C(=O)N[C@H](C(=O)N[C@@H](C)C(=O)N[C@@H](COP(=O)(O)O)C(=O)N[C@@H](COP(=O)(O)O)C(=O)N[C@@H](COP(=O)(O)O)C(=O)N[C@@H](CC(C)C)C(=O)N[C@@H](C)C(=O)N[C@@H](CCCCN)C(=O)N[C@@H](CC(=O)O)C(=O)N[C@H](C(=O)N[C@@H](CO)C(=O)N[C@@H](CO)C(=O)O)[C@@H](C)O)[C@@H](C)OP(=O)(O)O)[C@@H](C)OP(=O)(O)O [V2Rpp-1] | 3.3 ± 0.6 µM | approximately 3 fold
2 | CC(C)C[C@H](NC(=O)[C@H](COP(=O)(O)O)NC(=O)[C@@H]1CCCN1C(=O)[C@@H]1CCCN1C(=O)[C@@H](NC(=O)[C@H](CCCNC(=N)N)NC(=O)CNC(=O)[C@H](CCCNC(=N)N)NC(=O)[C@H](C)N)[C@@H](C)OP(=O)(O)O)C(=O)NCC(=O)N1CCC[C@H]1C(=O)N[C@@H](CCC(N)=O)C(=O)N[C@@H](CC(=O)O)C(=O)N[C@@H](CCC(=O)O)C(=O)N[C@@H](CO)C(=O)N[C@@H](CS)C(=O)N[C@H](C(=O)N[C@H](C(=O)N[C@@H](C)C(=O)N[C@@H](COP(=O)(O)O)C(=O)N[C@@H](COP(=O)(O)O)C(=O)N[C@@H](COP(=O)(O)O)C(=O)N[C@@H](CC(C)C)C(=O)N[C@@H](C)C(=O)N[C@@H](CCCCN)C(=O)N[C@@H](CC(=O)O)C(=O)N[C@H](C(=O)N[C@@H](CO)C(=O)N[C@@H](CO)C(=O)O)[C@@H](C)O)[C@@H](C)OP(=O)(O)O)[C@@H](C)OP(=O)(O)O [V2Rpp-3] | 3 ± 0.4 µM | approximately 3 fold
3 | CC(C)C[C@H](NC(=O)[C@H](COP(=O)(O)O)NC(=O)[C@@H]1CCCN1C(=O)[C@@H]1CCCN1C(=O)[C@@H](NC(=O)[C@H](CCCNC(=N)N)NC(=O)CNC(=O)[C@H](CCCNC(=N)N)NC(=O)[C@H](C)N)[C@@H](C)OP(=O)(O)O)C(=O)NCC(=O)N1CCC[C@H]1C(=O)N[C@@H](CCC(N)=O)C(=O)N[C@@H](CC(=O)O)C(=O)N[C@@H](CCC(=O)O)C(=O)N[C@@H](COP(=O)(O)O)C(=O)N[C@@H](CS)C(=O)N[C@H](C(=O)N[C@H](C(=O)N[C@@H](C)C(=O)N[C@@H](COP(=O)(O)O)C(=O)N[C@@H](COP(=O)(O)O)C(=O)N[C@@H](COP(=O)(O)O)C(=O)N[C@@H](CC(C)C)C(=O)N[C@@H](C)C(=O)N[C@@H](CCCCN)C(=O)N[C@@H](CC(=O)O)C(=O)N[C@H](C(=O)N[C@@H](CO)C(=O)N[C@@H](CO)C(=O)O)[C@@H](C)O)[C@@H](C)O)[C@@H](C)OP(=O)(O)O [V2Rpp-4] | 5.1 ± 0.7 µM | ~5 fold

— PMC8062632, “Structural studies of phosphorylation-dependent interactions between the V2R receptor and arrestin-2” (Nature Communications, 2021)
